{"source": "paper PMC10254852", "about": "“Design, Synthesis and Anticancer Evaluation of Nitroimidazole Radiosensitisers” (Molecules, 2023)", "key": {"HCT116/54C cells [1]": {"test_system": "HCT116/54C cells", "test": "In vitro radiosensitisation under anoxia, clonogenic survival", "format": "cell-based, human", "settings": "compound 1 mM, radiation dose for 1% survival/radiation dose for 1% survival with compound, mean ± SEM", "protocol": "Next, we evaluated in vitro radiosensitisation by using a representative subset of nitroimidazole compounds in HCT116/54C cells with a clonogenic survival endpoint. Radiosensitisation was determined by treating cells under anoxia with a range of radiation doses alone and with compounds at equimolar doses (1 mM). Sensitiser enhancement ratios (SER) were calculated as the ratio of radiation dose required for 1% clonogenic survival alone or with compound (Table 3).\nCells were seeded onto 96-well plates at 10^5 cells per well and allowed to attach for 2 h. […] The plates were irradiated (Eldorado 78 ^60Co teletherapy unit, ~2 Gy/min) with 15 Gy under anoxia at room temperature for SR experiments. A metal wedge placed on the top of the metal chamber was used to achieve a graduated radiation dose across the plate, varying from 7 to 29 Gy, calibrated by Fricke dosimetry with ammonium thiocyanate as previously described for SER experiments. The control plate (compound alone, no radiation) was left inside the anaerobic chamber at room temperature during the irradiation period. After treatment, the cells were trypsinized and suspended in usual media + 1% penicillin-streptomycin (ThermoFisher Scientific), and 10-fold serial dilutions were plated for clonogenic survival. After 10 days, plates were stained with methylene blue (2 g/L in EtOH/H2O, 1:1 v/v) and colonies with more than 50 cells were counted. The surviving fraction (SF) was determined as: SF = PE(irradiated)/PE(control) where the plating efficiency (PE) = (No. of colonies)/(No. of cells plated). SF was plotted against radiation dose. Survival ratios (SR) were calculated: SR = (cell survival with radiation)/(cell survival with drug + radiation). Sensitizer enhancement ratios (SER) were calculated: SER = (radiation dose for 1% survival without compound)/(radiation dose for 1% survival with compound)."}, "HCT116/54C tumours": {"test_system": "HCT116/54C tumours", "test": "Tumour radiosensitisation: ex vivo clonogenic assay", "format": "in vivo, NIH-III mice", "protocol": "(§1) Specific pathogen-free six- to eight-week-old female NIH-III mice, bred in the Vernon Jansen Unit, University of Auckland, were used for animal experiments. Animals had ad libitum access to food and water and were maintained in microisolator cages on a 12 h light/dark cycle. All treatments were administered by i.v. injection at a dose of 2.2 mmol/kg and injection volume of 10 mL/kg. Compounds 2, 34 and 38 were administered as solutions in saline containing 1% DMSO or for 9–12 as solutions in saline containing 2 molar equivalents of NaHCO3. Control animals received an i.v. injection of saline at 10 mL/kg. All animal experiments were conducted under the auspices of the University of Auckland Animal Ethics Committee (approval 1781).\n(§2) Compounds were evaluated for in vivo radiosensitisation of hypoxic cells in HCT116/54C and UT-SCC-74B human tumour xenografts using clonogenic survival as an endpoint, using previously report methods. Tumours were grown subcutaneously on the flanks of NIH-III mice by injecting 5 × 10^6 HCT116/54C cells or UT-SCC-74B cells. Once tumours reached a volume of approximately 250 mm^3, mice were randomly assigned to 4 treatment groups and treated with: (A) vehicle control, (B) 10 Gy RAD only, (C) sensitiser only, or (D) sensitiser given before 10 Gy RAD. Drugs were administered as a single i.v. dose at 2.2 mmol/kg. […] Tumours were excised 18 h after treatment, and tumour cells were dissociated enzymatically and plated to determine the number of surviving (clonogenic) cells per gram of tumour tissue. SF and SR were calculated as described above. Statistical significance of drug effects was tested using one-way ANOVA with Sidak tests for multiple comparisons vs. radiation alone (Table 5)."}, "UT-SCC-74B tumours": {"test_system": "UT-SCC-74B tumours", "test": "Tumour radiosensitisation: ex vivo clonogenic assay", "format": "in vivo, NIH-III mice", "protocol": "as §1, §2"}, "FaDu cells": {"test_system": "FaDu cells", "test": "In vitro cytotoxicity, 4 h exposure oxic/anoxic, 5-day regrowth, sulforhodamine B", "format": "cell-based", "settings": "for IC50: Homo sapiens, 4 h exposure, mean ± SEM", "source_text": "(§3) This allowed derivation of hypoxia cytotoxicity ratios (HCR) as IC50(oxic)/IC50(anoxic) in an HCT116 subclone HCT116/54C and two HNSCC cell lines, FaDu and UT-SCC-74B (Table 2).\n(§4) HCT116/54C is an HCT116 subline that originated from a mixed culture with UT-SCC-54C cells, which was supplied alongside UT-SCC-74B by Prof. Bradly Wouters (University Health Network, Toronto, ON, Canada). HCT116/54C and UT-SCC-74B cells were passaged in minimum essential media (MEM, ThermoFisher Scientific, Waltham, MA, USA) with 10% foetal calf serum (FCS, Moregate Biotech, Hamilton, New Zealand), 4.5 mg/mL D-glucose (Sigma-Aldrich, St. Louis, MO, USA) and 20 mM HEPES (Sigma-Aldrich). FaDu cells were sourced from American Type Culture Collection and cultured in αMEM (ThermoFisher Scientific) with 10% FCS. All cell lines were confirmed mycoplasma-free by PlasmoTest (InvivoGen, San Diego, CA, USA) and were derived from STR-authenticated cryopreserved stocks. Log-phase cells were seeded into 96-well plates at 800 cells/well for HCT116/54C and 1500 cells/well for FaDu. […] After drug washout, cells were grown and stained as for the oxic IC50 assays. The hypoxic cytotoxicity ratio HCR was determined as HCR = IC50(oxic)/IC50(anoxic)."}, "HCT116/54C cells [2]": {"test_system": "HCT116/54C cells", "test": "In vitro cytotoxicity, 4 h exposure oxic/anoxic, 5-day regrowth, sulforhodamine B", "format": "cell-based, human", "settings": "HCT116/54C; for IC50: Homo sapiens, 4 h exposure, mean ± SEM, n = 3–4", "source_text": "as §3, §4"}, "UT-SCC-74B cells": {"test_system": "UT-SCC-74B cells", "test": "In vitro cytotoxicity, 4 h exposure oxic/anoxic, 5-day regrowth, sulforhodamine B", "format": "cell-based, human", "settings": "for IC50: Homo sapiens, 4 h exposure, mean ± SEM", "source_text": "as §3, §4"}, "[3]": {"test": "Tolerability at maximum achievable dose, i.v.", "format": "in vivo", "settings": "i.v. injection, NIH-III mice", "source_text": "The most promising 2-nitroimidazole 34 and 5-nitroimidazole 38 compounds were selected for in vivo evaluation on the basis of solubility, in vitro cytotoxicity and radiosensitisation data. These compounds were both well tolerated by i.v. injection in NIH-III mice at their maximum achievable dose (MAD) of 2.2 mmol/kg. This MAD was also achieved for some of our earlier compounds, but only when we employed a phosphate prodrug strategy owing to their poor solubility. […] The Cmax and AUC exceeded that achieved for earlier phosphate prodrugs 9–12, but was less than 2. On this basis we advanced both morpholine analogues into in vivo radiosensitisation studies.\nas §1"}, "[4]": {"test_system": "HCT116/54C tumour xenografts", "test": "Tumour growth inhibition in combination with radiation", "format": "in vivo, NIH-III mice", "settings": "HCT116/54C tumours", "protocol": "as §1\nCompounds were evaluated for their ability to inhibit tumour growth in combination with a single dose of radiation (10 Gy) in HCT116/54C or UT-SCC-74B tumour xenografts on the backs of NIH-III mice. In addition, a fractionated radiation schedule (5 Gy on Days 1, 7 and 14) was explored in HCT116/54C tumour xenografts. Mice were randomly assigned to 4 treatment groups and treated with: (A) vehicle control, (B) 10 Gy RAD only, (C) sensitiser only, or (D) sensitiser given 10 min before 10 Gy RAD. Drugs were administered by i.v. injection at 2.2 mmol/kg either as a single dose or three doses on Days 1, 7 and 14 in the fractionated study. Treatment commenced when the average tumour size reached approximately 250 mm^3, and tumour size was measured until study endpoint. Mice were placed in a custom-built lead-shielded jig that allowed irradiation of the whole tumour but shielded the mouse from radiation. Survival analysis represented the time taken for tumours to increase in relative tumour volume by 4× from the start of treatment (RTV^4). The significance of differences in activity between the groups was assessed by log-rank with Holm–Sidak multiple comparison analysis."}, "[5]": {"settings": "2.2 mmol/kg i.v. 5 min prior to 10 Gy radiation, surviving fraction after radiation/surviving fraction after drug + radiation"}, "[6]": {"settings": "2.2 mmol/kg i.v. + 10 Gy, one-way ANOVA"}, "[7]": {"settings": "2.2 mmol/kg i.v., 10 Gy, mechanism experiment (Figure 3)"}, "[8]": {"settings": "anoxic, n = 3–4, read-out: IC50 Anoxic"}, "[9]": {"settings": "oxic, n = 3–4, read-out: IC50 Oxic"}}, "note": "Where two headings read alike, the source gives them in different places.", "data": [{"smiles": "O=[N+]([O-])c1cncn1CS(=O)(=O)NCCN1CCOCC1", "note": "[Compound 38]", "values": [{"measurement": "SER at 1 mM", "setting": "HCT116/54C cells [1]", "result": "1.39 ± 0.01"}, {"measurement": "Sensitisation Ratio", "setting": "HCT116/54C tumours; [5]", "result": 3.43}, {"measurement": "enhancement of tumour killing of radiotherapy (RAD vs drug + RAD)", "setting": "HCT116/54C tumours; [6]", "result": "significantly enhanced the tumour killing of radiotherapy"}, {"measurement": "SR, drug given 5 min before radiation", "setting": "HCT116/54C tumours; [7]", "result": 8.26}, {"measurement": "SR, drug given 20 min after radiation", "setting": "HCT116/54C tumours; [7]", "result": 1.38}, {"measurement": "Sensitisation Ratio", "setting": "UT-SCC-74B tumours; [5]", "result": 11.5}, {"measurement": "enhancement of tumour cell killing by radiotherapy (RAD vs drug + RAD)", "setting": "UT-SCC-74B tumours; [6]", "result": "significantly enhanced tumour cell killing by radiotherapy"}, {"measurement": "IC50", "setting": "FaDu cells; [8]", "result": "1.8 ± 0.1", "unit": "mM"}, {"measurement": "IC50", "setting": "FaDu cells; [9]", "result": "10.6 ± 0.6", "unit": "mM"}, {"measurement": "HCR", "setting": "FaDu cells; IC50(oxic)/IC50(anoxic)", "result": 5.8}, {"measurement": "HCR", "setting": "HCT116/54C cells [2]; IC50(oxic)/IC50(anoxic)", "result": 11.2}, {"measurement": "IC50", "setting": "HCT116/54C cells [2]; anoxic, read-out: IC50 Anoxic", "result": "1.2 ± 0.1", "unit": "mM"}, {"measurement": "IC50", "setting": "HCT116/54C cells [2]; oxic, read-out: IC50 Oxic", "result": "13.7 ± 2", "unit": "mM"}, {"measurement": "IC50", "setting": "UT-SCC-74B cells; [8]", "result": "1.5 ± 0.3", "unit": "mM"}, {"measurement": "IC50", "setting": "UT-SCC-74B cells; [9]", "result": "13.1 ± 2.8", "unit": "mM"}, {"measurement": "HCR", "setting": "UT-SCC-74B cells; IC50(oxic)/IC50(anoxic)", "result": 8.6}, {"measurement": "maximum achievable dose (MAD), well tolerated", "setting": "[3]", "result": 2.2, "unit": "mmol/kg"}, {"measurement": "survival (time to RTV^4) vs radiation alone", "setting": "[4]; fractionated radiation, p < 0.05", "result": "significantly increased survival compared to radiation alone"}, {"measurement": "tumour growth delay with fractionated radiation", "setting": "[4]; qw × 3, 5 Gy, 2.2 mmol/kg i.v.", "result": "delayed tumour growth relative to radiation alone"}]}]}
